# In patent publication US20070077311A1, “Fumigant/sterilant” (priority 2003, published 2007):
# Tests used:
# [1] = cited from earlier work
# [2] = Flammability limit tests of cyanogen/CO2 mixtures in air; type: physicochemical
# From the text: The apparatus allows continuous metering and mixing of known proportions of cyanogen, carbon dioxide and air. This permitted a number of ignition tests to be made in a relatively short period.
# The apparatus comprises sources of compressed air 1, carbon dioxide 2 and the active chemical cyanogen 3. […] The resultant mixture flows through tube 7 where it is diverted to an oxygen analyser 8 to determine its content, and an ignition tube 9 with ignition source 10 for flammability testing.
# Similarly, for the tests involving the addition of carbon dioxide, the proportions of air and CO2 were set using the previously arrived calibration material and at least two minutes were allowed to elapse between adjustment of the CO2/air proportions and ignition tests.
# Ignition tests involved switching a high voltage across an approximately 5 mm gap 10 within the flow ignition tube 9. […]
# Turning to FIG. 2, it is now possible to determine what proportion of cyanogen in carbon dioxide will remain inert in all proportions with air. Line A shown in FIG. 2 has the maximum slope that can be achieved whilst still remaining wholly below the experimentally determined lower explosive limits and passing through the origin.
# For reasons of safety, the Applicant has determined a preferred content of around 20% v/v as this gives an additional margin of safety.
# [3] = system: rat; conditions: 1 hour inhalation; cited from earlier work
smiles,measurement,setting,value
N#CC#N [cyanogen],Flammability limits in air,[1],6-32 % v/v
same,known LEL of cyanogen in air,[1]; literature value,6%
same,known UEL of cyanogen in air,[1]; literature value,32 % v/v
same,maximum proportion of cyanogen in carbon dioxide which is inert in all proportions with air,"[2]; from slope of Line A in FIG. 2, ignition source 2",approximately 26%
same,maximum of cyanogen in carbon dioxide gas inert in all proportions of air,[2]; subsequent testing,around 26 % v/v
same,LC50,[3],350 ppm
